Data published in patent US20220378780A1, “PHARMACEUTICAL COMPOSITIONS COMPRISING POH DERIVATIVES” (NeOnc Technologies, Inc., priority 2019, published 2022).
One block for each compound: values may come before it.

Tests used:
[1] = system: subcutaneous U-87 gliomas; experiment: Nude mouse subcutaneous glioma model, tumor growth inhibition; type: in vivo, nude mice; settings: local application via Q-tip, 1 cc/application/day, 8 weeks; growth over 60 days
Method: Inhibition of tumor growth by butyryl-POH was studied in a nude mouse subcutaneous glioma model. Mice were injected with U-87 glioma cells (500,000 cells/injection) and allowed to form a palpable nodule over two weeks. Once palpable nodule was formed, the mice were treated with local application of various compounds as indicated in FIGS. 9A and 9B via a Q-tip (1 cc/application/day) over a period of 8 weeks.

[2] = system: c-myc, cyclin D1, activated caspase-3 and cleaved PARP-1 in MyLa cells; experiment: Western blot of marker proteins with anti-oxidants or H2O2; type: cell-based, human; settings: for effect of anti-oxidant on NEO212-induced marker changes: 200 and 500 μM AA or 100 and 300 μM b-ME before 80 μM NEO212, 48 hours
Text: 2. Material and methods 2.1. […] 2.2. […] 2.3. […] 2.4.

[3] = system: TMZ sensitive (U251) cells; experiment: Colony forming assay, TMZ sensitive U251; type: cell-based, human
Method: (§1) Colony forming assays were carried out after cells were treated with TMZ alone, POH alone, and the TMZ-POH conjugate. […] Cancer Lett. 2011 Mar. 28; 302(2):100-8.

[4] = system: USC-02 glioma cancer stem cells; experiment: MTT cytotoxicity assay, USC-02; type: cell-based; settings: USC-02; TMZ 0-400 uM, POH 0-2 mM
Text: (§2) Cancer Lett. 2011 Mar. 28; 302(2):100-8.

HUT102 cells = experiment: MTT cell viability assay, HUT102 (Example 15); type: cell-based, human; settings: HUT102, 72 hours
Text: (§3) 2. Material and methods 2.1. […] 2.2. […] 2.3. […] 2.4. […] 2.5.

[5] = system: glioblastoma, breast cancer, or melanoma cell lines; settings: various in vitro cytotoxicity assays; cited from earlier work
[6] = system: USC-04 glioma cancer stem cells; experiment: MTT cytotoxicity assay, USC-04; type: cell-based; settings: USC-04; TMZ 0-400 uM, POH 0-2 mM
Text: as §2

[7] = system: TMZ resistant (U251TR) U251 cells; experiment: Colony forming assay, TMZ resistant U251TR; type: cell-based, human
Method: as §1

LN229 human glioma cells = experiment: MTT assay, rolipram vs POH-Rolipram, LN229; type: cell-based; settings: for IC50: MTT
Method: (§4) To compare the cytotoxicity of Rolipram POH Carbamate (POH-Rolipram) (e.g., synthesized by the method in Example 5) with rolipram, a […] inducing differentiation and apoptosis in glioma cells, A172, U87, U251 and LN229 human glioma cells were treated with either POH-Rolipram or rolipram for 48 hours. […] In the presence of POH-rolipram, IC50 is achieved at concentrations as low as 50 uM. […] IC50 is not met at 1000 uM. […] POH-rolipram achieves IC50 at 50 uM, with almost 100% cytoxicity at 100 uM. […] On the other hand, IC50 for POH-rolipram is achieved at 100 uM, with almost 100% cytotoxicity at […].

A172 human glioma cells = experiment: MTT assay, rolipram vs POH-Rolipram, A172; type: cell-based; settings: A-172 cells, 48 hours
Method: as §4

U87 human glioma cells = experiment: MTT assay, rolipram vs POH-Rolipram, U87; type: cell-based; settings: U-87 cells, 48 hours
Method: as §4

U251 human glioma cells = experiment: MTT assay, rolipram vs POH-Rolipram, U251; type: cell-based; settings: for IC50: 48 hours, MTT
Method: as §4

[8] = system: U87, A172 and U251 human glioma cells; experiment: MTT cytotoxicity assay on human malignant glioma cells; type: cell-based
Text: In vitro efficacy of the present composition can be determined using methods well known in the art. For example, the cytotoxicity of the present monoterpene (or sesquiterpene) and/or the therapeutic agents may be studied by MTT [3-(4,5-dimethylthiazol-2-yl)-2,5-diphenyl tetrazolium bromide] cytotoxicity assay. MTT assay is based on the principle of uptake of MTT, a tetrazolium salt, by metabolically active cells where it is metabolized into a blue colored formazon product, which can be read spectrometrically. J. of Immunological Methods 65: 55 63, 1983. The cytotoxicity of the present monoterpene (or sesquiterpene) derivative and/or the therapeutic agents may be studied by colony formation assay. Functional assays for inhibition of VEGF secretion and IL-8 secretion may be performed via ELISA. Cell cycle block by the present monoterpene (or sesquiterpene) derivative and/or the therapeutic agents may be studied by standard propidium iodide (PI) staining and flow cytometry. Invasion inhibition may be studied by Boyden chambers. In this assay a layer of reconstituted basement membrane, Matrigel, is coated onto chemotaxis filters and acts as a barrier to the migration of cells in the Boyden chambers. Only cells with invasive capacity can cross the Matrigel barrier. Other assays include, but are not limited to cell viability assays, apoptosis assays, and morphological assays.
Then U87, A172 and U251 cells were treated with dimethyl celecoxib bisPOH carbamate (POH-DMC) (e.g., synthesized by the method in Example 1), and the MTT cytotoxicity assays performed (FIG. 2).
Then TMZ-resistant glioma cell lines U87, A172 and U251 cells were treated with temozolomide POH carbamate (POH-TMZ) (e.g., synthesized by the method in Example 3).

HUT78 cells [9] = experiment: FACS analysis of cell death with 7-AAD; type: cell-based, human; settings: HUT78, highest concentration 300, 72 hours
Text: as §3

[10] = cancer patients; cited from earlier work
HUT78 cells [11] = experiment: MTT cell viability assay, HUT78 (Example 15)
Method: Pharmacological agents—NEO212 was dissolved in DMSO at 100 mM. TMZ was purchased from Sigma Aldrich (St. Louis, Mo.) and dissolved in DMSO (Santa Cruz Biotechnology, Dallas, Tex.) to a concentration of 50 mM. POH was purchased from Sigma-Aldrich and diluted in DMSO to 100 mM. […] Stock solutions of all drugs were stored at −20° C. Staurosporine (STSP) was purchased from Selleck Chemicals (Houston, Tex.), stored at 4° C. protected from light, and dissolved in DMSO before use. Ascorbic acid (AA) and beta-mercaptoethanol (b-ME) (Sigma Aldrich) were prepared fresh before use. Crystalline AA was dissolved in phosphate-buffered saline (PBS) to 25 mM; b-ME was diluted in medium to 25 mM. […] Cell lines—Three different human CTLC cell lines were used. […] Both media also contained 100 U/mL penicillin and 0.1 mg/mL streptomycin. Penicillin, streptomycin, and RPMI (prepared with raw materials from Cellgro/MediaTech, Manassas, Va.) were provided by the Cell Culture Core lab of the USC/Norris Comprehensive Cancer Center. […] Cells were kept in a humidified incubator at 37° C. and a 5% CO2 atmosphere. FBS was obtained from Omega Scientific (Tarzana, Calif.) and from X&Y Cell Culture (Kansas City, Mo.). […] MTT assay—Methylthiazoletetrazolium (MTT) assays were performed as follows. Cells were seeded into 96-well plates in a volume of 50 μL per well at 3.0-5.0×10^5 cells/mL. An additional 50 μL of medium containing various concentrations of drug (or vehicle) was added and the cells were incubated for different lengths of time. This was followed by the addition of 10 μL thiazolyl-blue tetrazolium (i.e., MTT; Sigma Aldrich) from a stock solution of 5 mg/mL in phosphate-buffered saline (PBS). Cells were returned to the incubator for 4 hours. Thereafter, the reaction was stopped and the cells were lysed by the addition of 100 μL solubilization solution (10% sodium dodecyl sulfate in 0.01 M hydrochloric acid). The 96-well plate was left in the cell culture incubator over night for complete solubilization of the MTT crystals, and the optical density (OD) of each well was determined the next day in an ELISA plate reader at 560 nm. The background value (=OD of control wells containing medium without cells+MTT+solubilization solution) was subtracted from all measured values. In individual experiments, each treatment condition was set up in quadruplicate, and each experiment was repeated several times independently. […] Cell proliferation analysis—Cell proliferation was assessed by counting cells over time. Independent cell cultures were exposed to different concentrations of NEO212. At different times, aliquots of cells were removed, mixed with Trypan blue, and counted in a hemocytometer. Blue cells were considered dead, whereas unstained cells were counted as live cells. […] Fluorescence-activated cell sorting (FACS) analysis—Cells were seeded in 6-well tissue culture plates at 2×10^5 cells/mL, followed by drug treatment. After 72 hours, cells were collected, washed twice with PBS, transferred to a microcentrifuge tube, and suspended in 200 μL of 1× binding buffer solution, which was made fresh from 10x binding buffer (0.2 μm sterile-filtered 0.1 M HEPES, pH 7.4; 1.4 M NaCl; 25 mM CaCl2)). Then 1 μL of a 1 mg/mL 7-amino-actinomycin D (7-AAD) solution (Thermo Fisher Scientific, Waltham, Mass.) was added. After 20 minutes of incubation on ice, cell fluorescence was analyzed on a FACSAria Flow Cytometer (Becton Dickinson Biosciences Ltd., Franklin Lakes, N.J.).

MyLa cells = experiment: MTT cell viability assay, MyLa (Example 15); type: cell-based, human; settings: Homo sapiens, 72 hours
Text: as §3

HuT 78 cells = experiment: MTT assay on HuT 78 cells (Example 14); settings: HuT 78, 72 hours
Method: HuT 78 cells are cutaneous T lymphocytes derived from a patient with Sézary syndrome.
HuT 78 cells were treated in vitro with (i) temozolomide (50, 100, 250 μM), (ii) POH-TMZ conjugate (“NEO212”, 25, 50, 100 μM), (iii) NEO412 which is the triple conjugate of temozolomide (TMZ), perillyl alcohol (POH), and linoleic acid (25, 50, 100, 250 μM), or (iv) vehicle alone. Seventy-two hours after the addition of drugs or vehicle, cell viability was determined by standard MTT (methylthiazoletetrazolium) assay.

Compound: C=C(C)C1CC=C(COC(=O)CCC)CC1 (stereo not shown) [Butyryl-POH]
inhibition of tumor growth [1]: greatest inhibition of tumor growth

Compound: OCCS [b-ME, beta-mercaptoethanol]
effect of anti-oxidant on NEO212-induced marker changes [2]: prevented the anticancer impact of NEO212

Compound: C=C(C)[C@@H]1CC=C(CO)CC1 [POH, perillyl alcohol, reference compound]
cytotoxicity in colony forming assay [3]: demonstrated cytotoxicity
cytotoxicity in MTT assay [4]: demonstrated cytotoxicity
activity on viability in MTT assay (HUT102 cells; up to 300 μM): very minimal activity
IC50 [5]: 0.7 to 1.8 mM
cytotoxicity in MTT assay [6]: demonstrated cytotoxicity
cytotoxicity in colony forming assay [7]: demonstrated cytotoxicity

Compound: O=C1O[C@H]([C@@H](O)CO)C(O)=C1O [AA, ascorbic acid]
effect of anti-oxidant on NEO212-induced marker changes [2]: prevented the anticancer impact of NEO212

Compound: OO [H2O2, hydrogen peroxide]
effect on proliferation and apoptosis markers ([2]; 200 μM H2O2, 48 hours): clear down-regulation of c-myc and cyclin D1 proteins, along with strong activation of caspase-3 and cleavage of PARP-1

Compound: C=C(C)C1CC=C(COC(=O)N2CC(c3ccc(OC)c(OC4CCCC4)c3)CC2=O)CC1 (stereo not shown) [POH-rolipram, 4-(3-cyclopentyloxy-4-methoxyphenyl)-2-oxo-pyrrolidine-1-carboxylic acid 4-isopropenyl cyclohex-1-enylmethyl ester]
IC50 (LN229 human glioma cells; 48 hours): 100 µM
cytotoxicity (LN229 human glioma cells; at 10 uM): ~100%
IC50 (A172 human glioma cells): 50 µM
IC50 (U87 human glioma cells): 180 µM
IC50 (U251 human glioma cells; U251 cells): 50 µM
cytotoxicity (U251 human glioma cells; U251 cells, at 100 uM): ~100%

Compound: Cn1nnc2c(C(N)=O)ncn2c1=O [TMZ, temozolomide, reference compound]
cytotoxicity in MTT assay [8]: minimal cytotoxicity
cytotoxicity in colony forming assay [3]: demonstrated cytotoxicity
cell death (HUT78 cells [9]): 26%
cytotoxicity in MTT assay [4]: did not induce significant cytotoxicity
peak plasma levels [10]: 50 to 70 µM
reduction of viability (HUT78 cells [11]; HUT78, 100 μM): about 30%
IC50 (HUT78 cells [11]; HUT78, 72 hours): > 300 µM
IC50 (HUT102 cells; Homo sapiens, HuT-102): 6 to 8 µM
IC50 (MyLa cells): > 300 µM
cytotoxicity in MTT assay [6]: did not induce significant cytotoxicity
cytotoxicity in colony forming assay [7]: minimal cytotoxicity
cytotoxic effect on MF cells in MTT assay (HuT 78 cells): does not show much cytotoxicity

IC50 (LN229 human glioma cells; Homo sapiens, LN-229, 48 hours): > 100 µM
IC50 (A172 human glioma cells; Homo sapiens): ~1000 µM
IC50 (U87 human glioma cells; Homo sapiens, U-87 MG): > 1000 µM
IC50 (U251 human glioma cells; Homo sapiens, U-251, U251 cells): 170 µM
Compound: COc1ccc(C2CNC(=O)C2)cc1OC1CCCC1 (stereo not shown) [rolipram, reference compound]
plateau cytotoxicity (U251 human glioma cells; human, 48 h): 60%

Compound: C=C(C)C1CC=C(COC(=O)N(C(=O)OCC2=CCC(C(=C)C)CC2)S(=O)(=O)c2ccc(-n3nc(C(F)(F)F)cc3-c3cc(C)ccc3C)cc2)CC1 (stereo not shown) [POH-DMC]
cytotoxicity in MTT assay [8]: much better cytotoxicity than DMC alone
